We go through 1 molecule from US10654834B2 (Venenum Biodesign, LLC, priority 2016, dated 2020).

The nature of series [1]: Bile weight after 6 weeks of dosing in DIO mice. The format is in vivo, mouse. The following applies: about 6 h after final dose. From the text: In the next series of studies (Examples 93-99), Male DIO mice were received at 12 weeks of age (from Taconic), and were single-housed at the testing facility and acclimated for at least 2 weeks. The mice were provided a high fat diet [Research Diet D12492 (60% Fat kcal)] while in the testing facility. Before the study initiation, the animals were randomized into 5 experimental groups by body weight. The vehicle group contained only 0.5% carboxymethylcellulose (medium viscosity)+0.25% Tween-80. The second group contained 10 mg/kg of the DPP-IV inhibitor Sitagliptin while the third group contained 30 mg/kg Compound 268. The fourth group contained the combination of 10 mg/kg Sitagliptin and 30 mg/kg Compound 268. The fifth group was the positive control for weight loss, Rimonabant. All mice were dosed BID at approximately 6:00 am and again at approximately 4:00 pm. The positive control rimonabant was administered at a dose of 10 mg/kg in the afternoon and the morning dosing was vehicle (no compound).
No Bile Weight Increase after 6 Weeks of Dosing Compounds
Compounds of the present invention were dosed for multiple weeks and were evaluated to determine if they lead to an increase in bile weight.
In this example, the protocol from Example 93 was utilized. […]

Series [2] in a line: Plasma concentration of compound in lean C57BL/6N mice after OGTT. The format is in vivo, mouse. The following applies: 6 h after 30 mg/kg + sitagliptin 3 mg/kg. Here is the method: In these studies, the plasma concentration of the compounds of the present invention was measured in DIO mice as well as lean C57BL/6N mice.
In the second study (data represented in FIG. 11), plasma concentration levels were measured in lean mice after an OGTT experiment described in Example 84. The blood was collected via cardiac puncture 6 hours post compound dosing (and 2 hours after the 2 g/kg glucose bolus). The blood samples (?250 μL) were placed in an EDTA K^2+ tube and plasma was processed for analytical chemistry and analyzed by LCMS/MS method as described in Example 81. FIG. 11 depicts low levels of Compound 268 following OGTT in lean C57BL/6N mice, 6 hours after treatment with 30 mg/kg in combination with 3 mg/kg sitagliptin.

Each structure is given as a SMILES string.

Take `N#Cc1ccc(CCNC(=O)[C@@H]2CCN2c2cc(N3CCC(CCNC(=O)NCCC(=O)O)CC3)nc(C(F)(F)F)n2)cc1` [Compound 268, (S)-3-(3-(2-(1-(6-(2-((4-cyanophenethyl)carbamoyl)azetidin-1-yl)-2-(trifluoromethyl)pyrimidin-4-yl)piperidin-4-yl)ethyl)ureido)propanoic acid]: the “bile weight / gallbladder size after 6 weeks of dosing” value in series [1] is reported as “does not show an increase in size”. For the same molecule, the “plasma concentration of compound” value in series [2] is “low levels”.
